From patent US20060041959A1, “Control of plant growth and developmental process” (Universiteit Leiden, priority 2003, published 2006) come the findings set out here.

Entries after “also recorded” stand apart in the source; their conditions may differ.

The subject of experiment [1] is wild-type arabiodopsis seeds (ecotype Columbia). Kind of experiment: Germination and growth of wild-type Arabidopsis seedlings on ½MS medium containing plant growth substance. The format is in vivo. The text has this: (§1) It is thus likely that overexpression directly or indirectly leads to changes in the levels of plant growth substances. Plant cells affected in this manner can secrete regulatory signals affecting neighboring cells or tissues. It is thus shown herein that by using plant material overexpressing one or more members of the protein family described with the sequence identifiers mentioned, the development of other plant material (including non-transformed material) can be altered towards a more organogenic/embryogenic pathway.

Experiment [2] concerns mutant phenotypes caused by NM—115413.1/NM—106300.1 overexpression constructs. Kind of experiment: Effect of plant growth substance on NM_115413.1/NM_106300.1 overexpressing mutant phenotypes. Format: in vivo, Arabidopsis. The following applies: applied to overexpressing lines.
Text: as §1

Regarding `CC(C)[C@@H](C)[C@@H](O)[C@H](O)[C@@H](C)[C@H]1CC[C@H]2[C@@H]3COC(=O)[C@H]4C[C@H](O)[C@H](O)C[C@]4(C)[C@H]3CC[C@]12C` [24-epibrassinolide], the “seedling growth phenotype after germination on medium containing the substance” value in experiment [1] (4 μM in ½MS medium, 14 and 28 dag, controls 0.1% DMSO, FIG. 3) is “growth aberrations resembling those seen in NM—115413.1 or NM—106300.1 overexpressing seedlings can be observed”. In addition, the “somatic embryogenesis in wild-type plants” value in experiment [1] (wild-type plants, FIG. 3) is reported as “somatic embryogenesis was not observed”. Further, in experiment [1] (wild-type plants, compared with other plant growth substances investigated), the “ability to mimic the mutant phenotypes caused by overexpression constructs in wild-type plants” value is given as “can mimic some of the effects of overexpression of the proteins of the invention; also recorded: most profound effect on wild-type plants”. In experiment [2], the “effect on mutant (overexpression) phenotypes” value was “able to make the mutant phenotypes more vigorous”.
